Experimental data published in ChEMBL document CHEMBL1671627, “Increasing trends in antimicrobial resistance among clinically important anaerobes and Bacteroides fragilis isolates causing nosocomial infections: emerging resistance to carbapenems” (2008).
In brackets after ≈: the same amount, converted by molar mass.

Tests used:
Phocaeicola vulgatus [1] = experiment: Antibacterial activity against beta-lactamase producing Bacteroides vulgatus by CLSI agar dilution method; type: functional
Fusobacterium nucleatum [2] = experiment: Antibacterial activity against Fusobacterium nucleatum by CLSI agar dilution method; type: functional
Bacteroides fragilis [3] = experiment: Antibacterial activity against Bacteroides fragilis by CLSI agar dilution method; type: functional
[4] = tested on: Clostridium paraputrificum; experiment: Antibacterial activity against beta-lactamase producing Clostridium paraputrificum by CLSI agar dilution method; type: functional
Prevotella buccae [5] = experiment: Antibacterial activity against Prevotella buccae by CLSI agar dilution method; type: functional; details: Segatella buccae
[6] = tested on: Peptoniphilus asaccharolyticus; experiment: Antibacterial activity against beta-lactamase producing Peptoniphilus asaccharolyticus by CLSI agar dilution method; type: functional
Fusobacterium mortiferum [7] = experiment: Antibacterial activity against Fusobacterium mortiferum by CLSI agar dilution method; type: functional
Prevotella bivia [8] = experiment: Antibacterial activity against Prevotella bivia by CLSI agar dilution method; type: functional
Finegoldia magna = experiment: Antibacterial activity against beta-lactamase producing Finegoldia magna by CLSI agar dilution method; type: functional
[9] = tested on: Prevotella melaninogenica; experiment: Antibacterial activity against Prevotella melaninogenica by CLSI agar dilution method; type: functional
Veillonella parvula = experiment: Antibacterial activity against Veillonella parvula by CLSI agar dilution method; type: functional
Clostridium septicum = experiment: Antibacterial activity against beta-lactamase producing Clostridium septicum by CLSI agar dilution method; type: functional
Clostridium perfringens = experiment: microbe, parasite or virus in culture; type: functional
Fusobacterium varium [10] = experiment: Antibacterial activity against Fusobacterium varium by CLSI agar dilution method; type: functional
[11] = tested on: Fusobacterium necrophorum; experiment: Antibacterial activity against Fusobacterium necrophorum by CLSI agar dilution method; type: functional
[12] = tested on: Peptostreptococcus anaerobius; experiment: Antibacterial activity against beta-lactamase producing Peptostreptococcus anaerobius by CLSI agar dilution method; type: functional
Bacteroides uniformis [13] = experiment: Antibacterial activity against beta-lactamase producing Bacteroides uniformis by CLSI agar dilution method; type: functional
Prevotella intermedia [14] = experiment: Antibacterial activity against Prevotella intermedia by CLSI agar dilution method; type: functional
Clostridium tertium = experiment: Antibacterial activity against beta-lactamase producing Clostridium tertium by CLSI agar dilution method; type: functional
Parvimonas micra = experiment: Antibacterial activity against beta-lactamase producing Micromonas micros by CLSI agar dilution method; type: functional
Bacteroides caccae [15] = experiment: Antibacterial activity against beta-lactamase producing Bacteroides caccae by CLSI agar dilution method; type: functional
[16] = tested on: Bacteroides thetaiotaomicron; experiment: Antibacterial activity against beta-lactamase producing Bacteroides thetaiotaomicron by CLSI agar dilution method; type: functional
Fusobacterium mortiferum [17] = experiment: Antibacterial activity against Fusobacterium mortiferum assessed as susceptible isolates by CLSI agar dilution method; type: functional
Prevotella buccae [18] = experiment: Antibacterial activity against Prevotella buccae assessed as susceptible isolates by CLSI agar dilution method; type: functional, Segatella buccae
[19] = tested on: Fusobacterium necrophorum; experiment: Antibacterial activity against Fusobacterium necrophorum assessed as susceptible isolates by CLSI agar dilution method; type: functional
[20] = tested on: Prevotella melaninogenica; experiment: Antibacterial activity against Prevotella melaninogenica assessed as resistant isolates by CLSI agar dilution method; type: functional
Phocaeicola vulgatus [21] = experiment: Antibacterial activity against beta-lactamase producing Bacteroides vulgatus assessed as susceptible isolates by CLSI agar dilution method; type: functional
[22] = tested on: Bacteroides thetaiotaomicron; experiment: Antibacterial activity against beta-lactamase producing Bacteroides thetaiotaomicron assessed as susceptible isolates by CLSI agar dilution method; type: functional
Phocaeicola vulgatus [23] = experiment: Antibacterial activity against beta-lactamase producing Bacteroides vulgatus assessed as resistant isolates by CLSI agar dilution method; type: functional
Prevotella buccae [24] = experiment: Antibacterial activity against Prevotella buccae assessed as resistant isolates by CLSI agar dilution method; type: functional, Segatella buccae
Prevotella bivia [25] = experiment: Antibacterial activity against Prevotella bivia assessed as susceptible isolates by CLSI agar dilution method; type: functional
Bacteroides uniformis [26] = experiment: Antibacterial activity against beta-lactamase producing Bacteroides uniformis assessed as resistant isolates by CLSI agar dilution method; type: functional
Fusobacterium mortiferum [27] = experiment: Antibacterial activity against Fusobacterium mortiferum assessed as resistant isolates by CLSI agar dilution method; type: functional
[28] = tested on: Fusobacterium necrophorum; experiment: Antibacterial activity against Fusobacterium necrophorum assessed as resistant isolates by CLSI agar dilution method; type: functional
Fusobacterium varium [29] = experiment: Antibacterial activity against Fusobacterium varium assessed as susceptible isolates by CLSI agar dilution method; type: functional
Fusobacterium varium [30] = experiment: Antibacterial activity against Fusobacterium varium assessed as resistant isolates by CLSI agar dilution method; type: functional
Bacteroides fragilis [31] = experiment: Antibacterial activity against Bacteroides fragilis assessed as resistant isolates by CLSI agar dilution method; type: functional
Prevotella intermedia [32] = experiment: Antibacterial activity against Prevotella intermedia assessed as resistant isolates by CLSI agar dilution method; type: functional
Prevotella bivia [33] = experiment: Antibacterial activity against Prevotella bivia assessed as resistant isolates by CLSI agar dilution method; type: functional
Prevotella intermedia [34] = experiment: Antibacterial activity against Prevotella intermedia assessed as susceptible isolates by CLSI agar dilution method; type: functional
Fusobacterium nucleatum [35] = experiment: Antibacterial activity against Fusobacterium nucleatum assessed as susceptible isolates by CLSI agar dilution method; type: functional
[36] = tested on: Bacteroides thetaiotaomicron; experiment: Antibacterial activity against beta-lactamase producing Bacteroides thetaiotaomicron assessed as resistant isolates by CLSI agar dilution method; type: functional
Bacteroides fragilis [37] = experiment: Antibacterial activity against Bacteroides fragilis assessed as susceptible isolates by CLSI agar dilution method; type: functional
Bacteroides caccae [38] = experiment: Antibacterial activity against beta-lactamase producing Bacteroides caccae assessed as resistant isolates by CLSI agar dilution method; type: functional
Fusobacterium nucleatum [39] = experiment: Antibacterial activity against Fusobacterium nucleatum assessed as resistant isolates by CLSI agar dilution method; type: functional
Bacteroides caccae [40] = experiment: Antibacterial activity against beta-lactamase producing Bacteroides caccae assessed as susceptible isolates by CLSI agar dilution method; type: functional
Bacteroides uniformis [41] = experiment: Antibacterial activity against beta-lactamase producing Bacteroides uniformis assessed as susceptible isolates by CLSI agar dilution method; type: functional
[42] = tested on: Prevotella melaninogenica; experiment: Antibacterial activity against Prevotella melaninogenica assessed as susceptible isolates by CLSI agar dilution method; type: functional

## C[C@H]1COc2c(N3CCN(C)CC3)c(F)cc3c(=O)c(C(=O)O)cn1c23.C[C@H]1COc2c(N3CCN(C)CC3)c(F)cc3c(=O)c(C(=O)O)cn1c23.O [LEVOFLOXACIN]
Phocaeicola vulgatus [1]
  MIC50: 2 µg/mL
  MIC90: 8 µg/mL
Fusobacterium nucleatum [2]
  MIC50: 2 µg/mL
  MIC90: 4 µg/mL
Bacteroides fragilis [3]
  MIC50: 2 µg/mL
  MIC90: 8 µg/mL
[4]
  MIC50: 0.5 µg/mL
  MIC90: 4 µg/mL
Prevotella buccae [5]
  MIC50: 1 µg/mL
  MIC90: 16 µg/mL
[6]
  MIC50: 0.5 µg/mL
  MIC90: 32 µg/mL
Fusobacterium mortiferum [7]
  MIC50: 2 µg/mL
  MIC90: 4 µg/mL
Prevotella bivia [8]
  MIC50: 1 µg/mL
  MIC90: 16 µg/mL
Finegoldia magna
  MIC50: 0.5 µg/mL
  MIC90: 32 µg/mL
[9]
  MIC50: 1 µg/mL
  MIC90: 16 µg/mL
Veillonella parvula
  MIC: 0.06 µg/mL
Clostridium septicum
  MIC50: 0.5 µg/mL
  MIC90: 4 µg/mL
Clostridium perfringens
  MIC90: 4 µg/mL
Fusobacterium varium [10]
  MIC50: 2 µg/mL
  MIC90: 4 µg/mL
[11]
  MIC50: 2 µg/mL
  MIC90: 4 µg/mL
[12]
  MIC50: 0.5 µg/mL
  MIC90: 32 µg/mL
Bacteroides uniformis [13]
  MIC50: 2 µg/mL
  MIC90: 8 µg/mL
Prevotella intermedia [14]
  MIC50: 1 µg/mL
  MIC90: 16 µg/mL
Clostridium tertium
  MIC50: 0.5 µg/mL
  MIC90: 4 µg/mL
Parvimonas micra
  MIC50: 0.5 µg/mL
  MIC90: 32 µg/mL
Bacteroides caccae [15]
  MIC50: 2 µg/mL
  MIC90: 8 µg/mL
[16]
  MIC50: 4 µg/mL
  MIC90: 8 µg/mL

## CC1(C)S[C@@H]2[C@H](NC(=O)Cc3ccccc3)C(=O)N2[C@H]1C(=O)O [PENICILLIN G]
Fusobacterium mortiferum [17]
  Activity: 85%
Prevotella buccae [18]
  Activity: 6%
[19]
  Activity: 85%
[20]
  Activity: 95%
Phocaeicola vulgatus [1]
  MIC50: > 128 µg/mL
  MIC90: > 128 µg/mL
Phocaeicola vulgatus [21]
  Activity: 0%
[22]
  Activity: 0%
Phocaeicola vulgatus [23]
  Activity: 100%
Fusobacterium nucleatum [2]
  MIC50: 0.25 µg/mL (≈ 0.748 µM)
  MIC90: 1 µg/mL (≈ 2.99 µM)
Prevotella buccae [24]
  Activity: 95%
Prevotella bivia [25]
  Activity: 6%
Bacteroides fragilis [3]
  MIC50: 16 µg/mL (≈ 47.8 µM)
  MIC90: > 128 µg/mL
[4]
  MIC50: 0.25 µg/mL (≈ 0.748 µM)
  MIC90: 4 µg/mL (≈ 12 µM)
Bacteroides uniformis [26]
  Activity: 100%
Fusobacterium mortiferum [27]
  Activity: 11%
[28]
  Activity: 11%
Prevotella buccae [5]
  MIC50: 16 µg/mL (≈ 47.8 µM)
  MIC90: 64 µg/mL (≈ 191 µM)
Fusobacterium varium [29]
  Activity: 85%
[6]
  MIC: 0.03 µg/mL (≈ 0.0897 µM)
  MIC50: 0.03 µg/mL (≈ 0.0897 µM)
  MIC90: 1 µg/mL (≈ 2.99 µM)
Fusobacterium mortiferum [7]
  MIC50: 0.25 µg/mL (≈ 0.748 µM)
  MIC90: 1 µg/mL (≈ 2.99 µM)
Fusobacterium varium [30]
  Activity: 11%
Prevotella bivia [8]
  MIC50: 16 µg/mL (≈ 47.8 µM)
  MIC90: 64 µg/mL (≈ 191 µM)
Bacteroides fragilis [31]
  Activity: 100%
Finegoldia magna
  MIC: 0.03 µg/mL (≈ 0.0897 µM)
  MIC50: 0.03 µg/mL (≈ 0.0897 µM)
  MIC90: 1 µg/mL (≈ 2.99 µM)
Prevotella intermedia [32]
  Activity: 95%
[9]
  MIC50: 16 µg/mL (≈ 47.8 µM)
  MIC90: 64 µg/mL (≈ 191 µM)
Prevotella bivia [33]
  Activity: 95%
Prevotella intermedia [34]
  Activity: 6%
Veillonella parvula
  MIC: 0.06 µg/mL (≈ 0.179 µM)
Clostridium septicum
  MIC50: 0.25 µg/mL (≈ 0.748 µM)
  MIC90: 4 µg/mL (≈ 12 µM)
Clostridium perfringens
  MIC50: 0.25 µg/mL (≈ 0.748 µM)
  MIC90: 4 µg/mL (≈ 12 µM)
Fusobacterium nucleatum [35]
  Activity: 85%
Fusobacterium varium [10]
  MIC50: 0.25 µg/mL (≈ 0.748 µM)
  MIC90: 1 µg/mL (≈ 2.99 µM)
[11]
  MIC50: 0.25 µg/mL (≈ 0.748 µM)
  MIC90: 1 µg/mL (≈ 2.99 µM)
[12]
  MIC: 0.03 µg/mL (≈ 0.0897 µM)
  MIC50: 0.03 µg/mL (≈ 0.0897 µM)
  MIC90: 1 µg/mL (≈ 2.99 µM)
[36]
  Activity: 100%
Bacteroides uniformis [13]
  MIC50: > 128 µg/mL
  MIC90: > 128 µg/mL
Prevotella intermedia [14]
  MIC50: 16 µg/mL (≈ 47.8 µM)
  MIC90: 64 µg/mL (≈ 191 µM)
Bacteroides fragilis [37]
  Activity: 0%
Clostridium tertium
  MIC50: 0.25 µg/mL (≈ 0.748 µM)
  MIC90: 4 µg/mL (≈ 12 µM)
Bacteroides caccae [38]
  Activity: 100%
Fusobacterium nucleatum [39]
  Activity: 11%
Parvimonas micra
  MIC: 0.03 µg/mL (≈ 0.0897 µM)
  MIC50: 0.03 µg/mL (≈ 0.0897 µM)
  MIC90: 1 µg/mL (≈ 2.99 µM)
Bacteroides caccae [15]
  MIC50: > 128 µg/mL
  MIC90: > 128 µg/mL
[16]
  MIC50: 16 µg/mL (≈ 47.8 µM)
  MIC90: > 128 µg/mL
Bacteroides caccae [40]
  Activity: 0%
Bacteroides uniformis [41]
  Activity: 0%
[42]
  Activity: 6%
